Measured values from the supplement of paper PMC10307832.

Experiments:
Experiment in all cases: relative viability (nuclei count vs DMSO), 5 days (fraction); higher = more cells survive
Everolimus = compound: CO[C@H]1C[C@@H]2CC[C@@H](C)[C@@](O)(O2)C(=O)C(=O)N2CCCC[C@H]2C(=O)O[C@H]([C@H](C)C[C@@H]2CC[C@@H](OCCO)[C@H](OC)C2)CC(=O)[C@H](C)/C=C(\C)[C@@H](O)[C@@H](OC)C(=O)[C@H](C)C[C@H](C)/C=C/C=C/C=C/1C [Everolimus]
Procedure, shortened: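 Five library-drug doses, separated by factors of √10, were pinned into 1536-well plates holding lung cancer cell lines after an overnight stay at 37 °C. Cells were fixed, permeabilised and Hoechst-stained in one step after 5 days without medium change, then imaged at 4×. Viability compares treated-well with vehicle-well nuclei, counted in MetaXpress, as a median across plates. Passing plates had control CV below 25% and at least one doubling.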

Everolimus + OSI-027 = compound: CO[C@H]1C[C@@H]2CC[C@@H](C)[C@@](O)(O2)C(=O)C(=O)N2CCCC[C@H]2C(=O)O[C@H]([C@H](C)C[C@@H]2CC[C@@H](OCCO)[C@H](OC)C2)CC(=O)[C@H](C)/C=C(\C)[C@@H](O)[C@@H](OC)C(=O)[C@H](C)C[C@H](C)/C=C/C=C/C=C/1C [Everolimus] + COc1cccc2cc(-c3nc([C@H]4CC[C@H](C(=O)O)CC4)n4ncnc(N)c34)[nH]c12 [OSI-027] (partner 0.5 µM)
Procedure, shortened: (§1)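 Lung cancer cell lines in 1536-well plates were dosed by pin tool the day after seeding, either with one drug alone or with a fixed anchor-drug dose plus five library-drug doses (not always all listed) in √10 steps. After 5 days, cells were fixed and their nuclei stained in one step (final 0.05% Triton X-100, 1% formaldehyde, 1 ug/ml Hoechst), then counted on 4× images. Relative viability is the nuclei count in treated wells divided by that in vehicle wells. Values are medians of duplicate plates.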

Everolimus + Phenformin = compound: CO[C@H]1C[C@@H]2CC[C@@H](C)[C@@](O)(O2)C(=O)C(=O)N2CCCC[C@H]2C(=O)O[C@H]([C@H](C)C[C@@H]2CC[C@@H](OCCO)[C@H](OC)C2)CC(=O)[C@H](C)/C=C(\C)[C@@H](O)[C@@H](OC)C(=O)[C@H](C)C[C@H](C)/C=C/C=C/C=C/1C [Everolimus] + N=C(N)NC(=N)NCCc1ccccc1 [Phenformin] (partner 250 µM)
Procedure, shortened: as §1

Everolimus + Trametinib = compound: CO[C@H]1C[C@@H]2CC[C@@H](C)[C@@](O)(O2)C(=O)C(=O)N2CCCC[C@H]2C(=O)O[C@H]([C@H](C)C[C@@H]2CC[C@@H](OCCO)[C@H](OC)C2)CC(=O)[C@H](C)/C=C(\C)[C@@H](O)[C@@H](OC)C(=O)[C@H](C)C[C@H](C)/C=C/C=C/C=C/1C [Everolimus] + CC(=O)Nc1cccc(-n2c(=O)n(C3CC3)c(=O)c3c(Nc4ccc(I)cc4F)n(C)c(=O)c(C)c32)c1 [Trametinib] (partner 0.02 µM)
Procedure, shortened: as §1

| Cell Line | relative viability (Everolimus; 0.01 µM) | relative viability (Everolimus; 0.03162 µM) | relative viability (Everolimus; 0.1 µM) | relative viability (Everolimus; 0.3162 µM) | relative viability (Everolimus; 1 µM) | relative viability (Everolimus + OSI-027; first compound 0.01 µM) | relative viability (Everolimus + OSI-027; first compound 0.03162 µM) | relative viability (Everolimus + OSI-027; first compound 0.1 µM) | relative viability (Everolimus + OSI-027; first compound 0.3162 µM) | relative viability (Everolimus + OSI-027; first compound 1 µM) | relative viability (Everolimus + Phenformin; first compound 0.01 µM) | relative viability (Everolimus + Phenformin; first compound 0.03162 µM) | relative viability (Everolimus + Phenformin; first compound 0.1 µM) | relative viability (Everolimus + Phenformin; first compound 0.3162 µM) | relative viability (Everolimus + Phenformin; first compound 1 µM) | relative viability (Everolimus + Trametinib; first compound 0.01 µM) | relative viability (Everolimus + Trametinib; first compound 0.03162 µM) | relative viability (Everolimus + Trametinib; first compound 0.1 µM) | relative viability (Everolimus + Trametinib; first compound 0.3162 µM) | relative viability (Everolimus + Trametinib; first compound 1 µM) |
| --- | --- | --- | --- | --- | --- | --- | --- | --- | --- | --- | --- | --- | --- | --- | --- | --- | --- | --- | --- | --- |
| 201T | 0.9 | 0.893 | 0.842 | 0.855 | 0.878 | 0.574 | 0.549 | 0.519 | 0.499 | 0.509 | 0.499 | 0.443 | 0.406 | 0.425 | 0.484 | 0.658 | 0.632 | 0.586 | 0.595 | 0.57 |
| A549 | 0.602 | 0.412 | 0.371 | 0.423 | 0.399 |  |  |  |  |  | 0.164 | 0.122 | 0.154 | 0.0954 | 0.157 |  |  |  |  |  |
| A-427 | 0.803 | 0.772 | 0.693 | 0.808 | 0.799 | 0.449 | 0.457 | 0.333 | 0.398 | 0.432 | 0.281 | 0.357 | 0.278 | 0.254 | 0.289 | 0.472 | 0.482 | 0.472 | 0.556 | 0.574 |
| ABC-1 | 0.604 | 0.822 | 0.781 | 0.707 | 0.875 | 0.342 | 0.281 | 0.279 | 0.357 | 0.316 | 0.223 | 0.249 | 0.21 | 0.203 | 0.264 |  |  |  |  |  |
| BEN | 0.567 | 0.358 | 0.334 | 0.46 | 0.387 | 0.247 | 0.292 | 0.272 | 0.253 | 0.239 | 0.289 | 0.249 | 0.273 | 0.24 | 0.26 | 0.494 | 0.447 | 0.467 | 0.484 | 0.46 |
| CAL-12T | 0.643 | 0.7 | 0.476 | 0.542 | 0.604 | 0.221 | 0.299 | 0.25 | 0.309 | 0.296 | 0.472 | 0.549 | 0.356 | 0.503 | 0.482 | 0.193 | 0.187 | 0.172 | 0.191 | 0.191 |
| COR-L23 | 0.858 | 0.942 | 0.869 | 0.88 | 0.684 | 0.334 | 0.352 | 0.374 | 0.419 | 0.367 | 0.368 | 0.413 | 0.395 | 0.421 | 0.424 | 0.37 | 0.337 | 0.316 | 0.375 | 0.294 |
| COR-L 105 | 0.667 | 0.682 | 0.592 | 0.552 | 0.663 | 0.43 | 0.418 | 0.366 | 0.457 | 0.445 | 0.356 | 0.387 | 0.388 | 0.435 | 0.361 | 0.424 | 0.389 | 0.378 | 0.455 | 0.424 |
| Calu-6 | 0.956 | 0.922 | 0.892 | 0.88 | 0.988 |  |  |  |  |  |  |  |  |  |  |  |  |  |  |  |
| ChaGo-K-1 | 0.976 | 0.95 | 0.865 | 0.899 | 0.974 | 0.467 | 0.445 | 0.443 | 0.504 | 0.495 | 0.532 | 0.467 | 0.394 | 0.536 | 0.568 | 0.647 | 0.795 | 0.729 | 0.751 | 0.796 |
| EBC-1 | 0.415 | 0.385 | 0.41 | 0.416 | 0.408 |  |  |  |  |  |  |  |  |  |  |  |  |  |  |  |
| EKVX | 0.628 | 0.687 | 0.544 | 0.541 | 0.573 | 0.518 | 0.427 | 0.289 | 0.358 | 0.43 | 0.242 | 0.22 | 0.22 | 0.222 | 0.25 |  | 0.294 | 0.257 | 0.268 | 0.382 |
| EMC-BAC-2 | 0.689 | 0.606 | 0.55 | 0.473 | 0.565 | 0.288 | 0.275 | 0.274 | 0.307 | 0.283 | 0.377 | 0.364 | 0.322 | 0.383 | 0.422 | 0.502 | 0.605 | 0.536 |  | 0.503 |
| EPLC-272H | 0.691 | 0.596 | 0.568 | 0.513 | 0.626 | 0.206 | 0.204 | 0.203 | 0.24 | 0.253 | 0.281 | 0.259 | 0.236 | 0.245 | 0.268 | 0.199 | 0.227 | 0.179 | 0.205 | 0.204 |
| H3255 | 0.735 | 0.664 | 0.543 | 0.528 | 0.495 | 0.531 | 0.426 | 0.381 | 0.402 | 0.339 | 0.332 | 0.271 | 0.354 | 0.363 | 0.288 | 0.414 | 0.391 | 0.351 | 0.433 | 0.403 |
| HARA | 0.858 | 0.999 | 0.784 | 0.87 | 0.78 | 0.277 | 0.345 |  | 0.282 | 0.336 | 0.412 | 0.489 |  | 0.419 | 0.466 | 0.425 | 0.394 | 0.346 | 0.559 | 0.339 |
